Data on two compounds can be found in ChEMBL document CHEMBL4507276 (2021).

pKi: −log10 of the molar value.

Assay [1] has as its target Sodium-dependent dopamine transporter (Homo sapiens, UniProt Q01959). Kind of assay: GPCRScan assay: inhibition of DAT. Further details: radioligand conc. used [nm] 3.6 – 16.0, parental cells stable HEK.
Assay [2] deals with Phosphatidylinositol 4-kinase beta (Homo sapiens) (UniProt Q9UBF8). As to conditions: Compound concentration 1000.0 nM.
Assay [3] deals with Serine/threonine-protein kinase TNNI3K (Homo sapiens) (UniProt Q59H18). The settings on record: Compound concentration 1000.0 nM.
The target of assay [4] is T1, 5-hydroxytryptamine receptor 2C (Homo sapiens) (UniProt P28335).
T1 sequence (whole entry): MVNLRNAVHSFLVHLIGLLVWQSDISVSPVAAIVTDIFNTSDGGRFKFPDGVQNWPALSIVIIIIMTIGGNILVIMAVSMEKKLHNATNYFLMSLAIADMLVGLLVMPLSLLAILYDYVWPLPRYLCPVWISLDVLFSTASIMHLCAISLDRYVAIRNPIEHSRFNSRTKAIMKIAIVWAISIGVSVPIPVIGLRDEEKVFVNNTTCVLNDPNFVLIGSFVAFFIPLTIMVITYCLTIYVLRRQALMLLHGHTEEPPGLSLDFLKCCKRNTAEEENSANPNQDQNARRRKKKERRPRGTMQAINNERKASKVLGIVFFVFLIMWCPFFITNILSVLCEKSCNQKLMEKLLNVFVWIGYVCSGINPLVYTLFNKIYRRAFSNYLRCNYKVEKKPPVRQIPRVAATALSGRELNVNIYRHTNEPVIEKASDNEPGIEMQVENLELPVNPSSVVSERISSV
Description: 5HT2CH_AGON Cerep selectivity data (BI). The settings on record: filed as agonist, Compound concentration 20.0 uM.

Assay [5] concerns the target 5-hydroxytryptamine receptor 4 (Homo sapiens) (UniProt Q13639). Kind of assay: 5HT4EH_ANTAG Cerep selectivity data (BI). The settings on record: filed as antagonist, Compound concentration 20.0 uM.
For assay [6], the target named is Glutamate receptor ionotropic, AMPA (Rattus norvegicus) (UniProt P19491+P19492+P19493+P19490). Kind of assay: AMPA/R Cerep selectivity data (BI). The settings on record: Compound concentration 20.0 uM. Type of assay: protein-complex assay.
Assay [7] concerns the target Beta-1 adrenergic receptor (Homo sapiens) (UniProt P08588). Description: BETA1/HUM Cerep selectivity data (BI). As to conditions: Compound concentration 20.0 uM.
Assay [8] deals with Gamma-aminobutyric acid receptor subunit alpha-1 (Rattus norvegicus) (UniProt P62813). Kind of assay: BZD/CENTR/R Cerep selectivity data (BI). The settings on record: Compound concentration 20.0 uM.
Sequence of Gamma-aminobutyric acid receptor subunit alpha-1 (Rattus norvegicus) (P62813 whole entry): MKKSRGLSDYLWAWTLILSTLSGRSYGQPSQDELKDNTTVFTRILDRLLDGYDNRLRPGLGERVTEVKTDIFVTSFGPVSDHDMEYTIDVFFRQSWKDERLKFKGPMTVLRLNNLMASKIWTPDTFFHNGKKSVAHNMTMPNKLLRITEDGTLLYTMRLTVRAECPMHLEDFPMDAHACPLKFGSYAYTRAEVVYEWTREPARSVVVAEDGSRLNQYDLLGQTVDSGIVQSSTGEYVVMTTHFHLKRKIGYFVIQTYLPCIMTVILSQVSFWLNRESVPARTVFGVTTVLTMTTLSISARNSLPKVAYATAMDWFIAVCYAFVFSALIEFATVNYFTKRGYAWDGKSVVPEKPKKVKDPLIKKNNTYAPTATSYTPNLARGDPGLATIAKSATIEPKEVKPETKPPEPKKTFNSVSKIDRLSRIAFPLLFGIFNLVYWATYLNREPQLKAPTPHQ
Assay [9] deals with Cyclin-dependent kinase 2/cyclin A (Homo sapiens) (UniProt P24941+P20248+P78396). Kind of assay: CDK2(CYCA)_CE Cerep selectivity data (BI). In kind it is protein-complex assay. The settings on record: Compound concentration 20.0 uM.
Assay [10] addresses Glucocorticoid receptor (Homo sapiens) (UniProt P04150). Kind of assay: GCORTICOID/H Cerep selectivity data (BI). As to conditions: Compound concentration 20.0 uM.
The target in assay [11] is Neprilysin (Homo sapiens) (UniProt P08473). Kind of assay: N_ENDOPEP Cerep selectivity data (BI). The settings on record: Compound concentration 20.0 uM.
Sequence of Neprilysin (Homo sapiens) (P08473 whole entry): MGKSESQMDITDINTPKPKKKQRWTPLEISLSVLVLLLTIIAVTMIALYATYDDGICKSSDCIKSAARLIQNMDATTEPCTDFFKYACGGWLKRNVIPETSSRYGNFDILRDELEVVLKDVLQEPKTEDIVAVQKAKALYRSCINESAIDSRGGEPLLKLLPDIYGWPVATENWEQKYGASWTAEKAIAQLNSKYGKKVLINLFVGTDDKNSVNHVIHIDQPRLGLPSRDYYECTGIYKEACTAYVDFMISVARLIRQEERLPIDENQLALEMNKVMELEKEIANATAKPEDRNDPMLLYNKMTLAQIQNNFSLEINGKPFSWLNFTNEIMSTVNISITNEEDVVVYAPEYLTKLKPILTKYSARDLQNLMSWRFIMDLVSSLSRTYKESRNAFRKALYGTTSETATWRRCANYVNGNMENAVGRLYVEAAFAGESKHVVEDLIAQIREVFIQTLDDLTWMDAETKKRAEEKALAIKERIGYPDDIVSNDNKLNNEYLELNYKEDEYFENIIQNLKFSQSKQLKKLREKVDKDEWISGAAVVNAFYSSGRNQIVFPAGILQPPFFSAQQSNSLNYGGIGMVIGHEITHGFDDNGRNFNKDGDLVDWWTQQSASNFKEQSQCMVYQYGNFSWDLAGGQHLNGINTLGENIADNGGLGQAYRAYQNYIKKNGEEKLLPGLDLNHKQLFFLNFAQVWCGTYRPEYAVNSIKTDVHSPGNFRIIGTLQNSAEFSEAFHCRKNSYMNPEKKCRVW
Assay [12] deals with Peroxisome proliferator-activated receptor gamma (Homo sapiens) (UniProt P37231). Kind of assay: PPARG/H AG Cerep selectivity data (BI). The settings on record: filed as agonist, Compound concentration 20.0 uM.
Assay [13] deals with Beta-2 adrenergic receptor (Homo sapiens) (UniProt P07550). Description: BETA2/HU Eurofins-Panlabs selectivity data (BI). The settings on record: Compound concentration 10.0 uM.
For assay [14], the target named is D(1A) dopamine receptor (Homo sapiens) (UniProt P21728). Kind of assay: D1/HU Eurofins-Panlabs selectivity data (BI). As to conditions: Compound concentration 10.0 uM.
For assay [15], the target named is T2, D(4) dopamine receptor (Homo sapiens) (UniProt P21917).
T2 sequence (whole entry): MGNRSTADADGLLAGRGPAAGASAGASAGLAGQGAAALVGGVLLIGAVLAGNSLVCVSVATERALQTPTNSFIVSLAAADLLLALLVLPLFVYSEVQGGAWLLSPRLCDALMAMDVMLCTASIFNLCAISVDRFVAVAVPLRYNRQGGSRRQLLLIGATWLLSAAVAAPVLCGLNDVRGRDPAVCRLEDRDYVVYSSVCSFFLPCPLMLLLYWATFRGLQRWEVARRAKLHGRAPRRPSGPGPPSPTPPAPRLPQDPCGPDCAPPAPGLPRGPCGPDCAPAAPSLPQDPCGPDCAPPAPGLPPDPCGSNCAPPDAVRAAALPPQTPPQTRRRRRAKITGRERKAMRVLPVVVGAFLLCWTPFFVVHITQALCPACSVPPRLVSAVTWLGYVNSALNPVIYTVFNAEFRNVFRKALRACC
Kind of assay: D4.2/H Eurofins-Panlabs selectivity data (BI). As to conditions: Compound concentration 10.0 uM.

The target of assay [16] is Glutamate receptor ionotropic, NMDA 1 (Rattus norvegicus) (UniProt P35439). Description: NMDAGLSI/RA Eurofins-Panlabs selectivity data (BI). As to conditions: Compound concentration 10.0 uM.
Assay [17] concerns the target AMP-activated protein kinase (AMPK) alpha-1/beta-1/gamma-1 (Homo sapiens) (UniProt P54619+Q9Y478+Q13131). Kind of assay: AMPK A1B1G1 Invitrogen selectivity data (BI). In kind it is protein-complex assay. As to conditions: Compound concentration 3.0 uM.
In assay [18] the target is Dual specificity tyrosine-phosphorylation-regulated kinase 4 (Homo sapiens) (UniProt Q9NR20). Kind of assay: DYRK4 Invitrogen selectivity data (BI). The settings on record: Compound concentration 3.0 uM.
Assay [19] addresses Receptor tyrosine-protein kinase erbB-4 (Homo sapiens) (UniProt Q15303). Kind of assay: ERBB4 Invitrogen selectivity data (BI). The settings on record: Compound concentration 3.0 uM.
For assay [20], the target named is Fibroblast growth factor receptor 3 (Homo sapiens) (UniProt P22607). Kind of assay: FGFR3 Invitrogen selectivity data (BI). The settings on record: Compound concentration 3.0 uM.
Assay [21] deals with Leucine-rich repeat serine/threonine-protein kinase 2 (Homo sapiens), Q5S007 [G2019S]. Description: LRRK2_G2019S Invitrogen selectivity data (BI). As to conditions: Compound concentration 3.0 uM.
The species entered for another assay is Homo sapiens. Description: MLCK Invitrogen selectivity data (BI). The settings on record: Compound concentration 3.0 uM.
Assay [22] has as its target High affinity nerve growth factor receptor (Homo sapiens) (UniProt P04629). Kind of assay: NTRK1 Invitrogen selectivity data (BI). As to conditions: Compound concentration 3.0 uM.
Assay [23] deals with Serine/threonine-protein kinase PAK 1 (Homo sapiens) (UniProt Q13153). Description: PAK1 Invitrogen selectivity data (BI). As to conditions: Compound concentration 3.0 uM.
The target of assay [24] is Serine/threonine-protein kinase PAK 3 (Homo sapiens) (UniProt O75914). Kind of assay: PAK3 Invitrogen selectivity data (BI). As to conditions: Compound concentration 3.0 uM.
Assay [25] addresses PI3-kinase p110-alpha/p85-alpha (Homo sapiens) (UniProt P27986+P42336). Description: PIK3CAPIK3R1 Invitrogen selectivity data (BI). Type of assay: protein-complex assay. As to conditions: Compound concentration 3.0 uM.
In assay [26] the target is Protein kinase C beta type (Homo sapiens) (UniProt P05771). Description: PRKCB2 Invitrogen selectivity data (BI). The settings on record: Compound concentration 3.0 uM.
For assay [27], the target named is SRSF protein kinase 1 (Homo sapiens) (UniProt Q96SB4). Kind of assay: SRPK1 Invitrogen selectivity data (BI). The settings on record: Compound concentration 3.0 uM.
Assay [28] deals with Testis-specific serine/threonine-protein kinase 2 (Homo sapiens) (UniProt Q96PF2). Kind of assay: STK22B Invitrogen selectivity data (BI). The settings on record: Compound concentration 3.0 uM.
Sequence of Testis-specific serine/threonine-protein kinase 2 (Homo sapiens) (Q96PF2 whole entry): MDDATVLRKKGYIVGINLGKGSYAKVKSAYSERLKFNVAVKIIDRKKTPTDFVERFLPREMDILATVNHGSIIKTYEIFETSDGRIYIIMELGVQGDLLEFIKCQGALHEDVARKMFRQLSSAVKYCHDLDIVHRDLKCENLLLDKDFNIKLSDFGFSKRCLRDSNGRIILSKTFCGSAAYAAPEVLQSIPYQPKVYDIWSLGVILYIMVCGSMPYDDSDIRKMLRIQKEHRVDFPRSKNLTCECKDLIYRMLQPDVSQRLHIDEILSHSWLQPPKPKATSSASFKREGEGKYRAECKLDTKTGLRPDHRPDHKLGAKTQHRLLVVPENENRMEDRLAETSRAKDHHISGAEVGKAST
The target in assay [29] is Activated CDC42 kinase 1 (Homo sapiens) (UniProt Q07912). Description: TNK2 Invitrogen selectivity data (BI). The settings on record: Compound concentration 3.0 uM.
For assay [30], the target named is Non-receptor tyrosine-protein kinase TYK2 (Homo sapiens) (UniProt P29597). Description: TYK2 Invitrogen selectivity data (BI). As to conditions: Compound concentration 3.0 uM.

Sequence of Sodium-dependent dopamine transporter (Q01959 whole entry): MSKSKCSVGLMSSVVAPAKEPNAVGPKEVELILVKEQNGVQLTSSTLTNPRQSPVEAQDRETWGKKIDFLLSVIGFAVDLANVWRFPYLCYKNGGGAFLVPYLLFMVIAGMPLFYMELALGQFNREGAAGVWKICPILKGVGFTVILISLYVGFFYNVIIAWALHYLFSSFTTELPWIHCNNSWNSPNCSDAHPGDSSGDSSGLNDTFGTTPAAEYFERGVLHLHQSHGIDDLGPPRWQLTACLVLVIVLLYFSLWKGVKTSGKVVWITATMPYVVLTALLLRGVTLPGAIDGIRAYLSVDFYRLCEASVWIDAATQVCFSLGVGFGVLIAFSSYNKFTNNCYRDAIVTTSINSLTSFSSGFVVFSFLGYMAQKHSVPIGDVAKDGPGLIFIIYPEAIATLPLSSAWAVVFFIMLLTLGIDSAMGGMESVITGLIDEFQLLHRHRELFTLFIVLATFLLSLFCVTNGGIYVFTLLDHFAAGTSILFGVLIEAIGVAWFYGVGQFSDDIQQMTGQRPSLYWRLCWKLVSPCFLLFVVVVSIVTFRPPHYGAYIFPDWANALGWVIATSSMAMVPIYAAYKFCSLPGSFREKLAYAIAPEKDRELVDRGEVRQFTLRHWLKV
Sequence of AMP-activated protein kinase (AMPK) alpha-1/beta-1/gamma-1 (Homo sapiens) (P54619 whole entry): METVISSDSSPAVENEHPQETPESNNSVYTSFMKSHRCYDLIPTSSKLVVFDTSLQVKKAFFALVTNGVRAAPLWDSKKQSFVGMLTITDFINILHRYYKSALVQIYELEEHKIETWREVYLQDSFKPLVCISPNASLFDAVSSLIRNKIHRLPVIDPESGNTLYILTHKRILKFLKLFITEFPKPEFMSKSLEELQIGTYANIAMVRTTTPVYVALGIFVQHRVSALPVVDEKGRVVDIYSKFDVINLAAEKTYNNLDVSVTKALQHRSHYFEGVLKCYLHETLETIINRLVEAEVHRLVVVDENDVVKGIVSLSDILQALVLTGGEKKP
Sequence of AMP-activated protein kinase (AMPK) alpha-1/beta-1/gamma-1 (Homo sapiens) (Q13131 whole entry partner): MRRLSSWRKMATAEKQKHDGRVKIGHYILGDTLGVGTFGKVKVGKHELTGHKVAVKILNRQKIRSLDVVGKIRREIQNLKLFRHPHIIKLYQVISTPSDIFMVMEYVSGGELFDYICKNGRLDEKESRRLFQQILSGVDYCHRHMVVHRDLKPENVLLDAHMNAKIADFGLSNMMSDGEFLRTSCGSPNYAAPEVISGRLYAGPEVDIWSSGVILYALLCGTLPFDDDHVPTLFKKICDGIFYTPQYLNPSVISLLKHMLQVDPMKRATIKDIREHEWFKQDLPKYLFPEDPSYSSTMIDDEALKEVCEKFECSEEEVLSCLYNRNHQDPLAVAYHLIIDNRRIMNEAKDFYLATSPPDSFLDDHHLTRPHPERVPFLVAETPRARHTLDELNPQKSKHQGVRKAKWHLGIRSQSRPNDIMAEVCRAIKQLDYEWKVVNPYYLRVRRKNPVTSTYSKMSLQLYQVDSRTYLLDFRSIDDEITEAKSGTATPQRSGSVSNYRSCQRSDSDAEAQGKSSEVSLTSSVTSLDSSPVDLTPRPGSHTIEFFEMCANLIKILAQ
Sequence of AMP-activated protein kinase (AMPK) alpha-1/beta-1/gamma-1 (Homo sapiens) (Q9Y478 2-270 partner limits assumed): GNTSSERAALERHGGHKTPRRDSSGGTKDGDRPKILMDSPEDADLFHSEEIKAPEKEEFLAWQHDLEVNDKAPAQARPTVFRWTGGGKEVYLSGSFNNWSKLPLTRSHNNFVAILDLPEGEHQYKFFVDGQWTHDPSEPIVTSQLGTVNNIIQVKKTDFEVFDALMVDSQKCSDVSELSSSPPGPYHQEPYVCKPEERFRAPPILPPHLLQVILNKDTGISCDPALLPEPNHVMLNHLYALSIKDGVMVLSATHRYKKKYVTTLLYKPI
Sequence of Beta-1 adrenergic receptor (Homo sapiens) (P08588 whole entry, looked up): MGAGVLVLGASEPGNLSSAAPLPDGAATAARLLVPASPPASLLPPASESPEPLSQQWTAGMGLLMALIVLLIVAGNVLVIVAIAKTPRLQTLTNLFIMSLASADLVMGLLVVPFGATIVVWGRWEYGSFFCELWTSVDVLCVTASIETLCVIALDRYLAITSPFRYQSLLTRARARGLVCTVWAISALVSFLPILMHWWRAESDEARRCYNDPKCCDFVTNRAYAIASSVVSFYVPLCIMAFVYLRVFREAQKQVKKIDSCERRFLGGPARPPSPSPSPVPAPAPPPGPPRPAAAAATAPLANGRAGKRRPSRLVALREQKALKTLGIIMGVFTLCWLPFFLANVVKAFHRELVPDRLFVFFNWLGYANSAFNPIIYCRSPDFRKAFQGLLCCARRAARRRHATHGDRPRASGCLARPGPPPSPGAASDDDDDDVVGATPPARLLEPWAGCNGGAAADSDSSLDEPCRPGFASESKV
Sequence of Glucocorticoid receptor (Homo sapiens) (P04150 whole entry): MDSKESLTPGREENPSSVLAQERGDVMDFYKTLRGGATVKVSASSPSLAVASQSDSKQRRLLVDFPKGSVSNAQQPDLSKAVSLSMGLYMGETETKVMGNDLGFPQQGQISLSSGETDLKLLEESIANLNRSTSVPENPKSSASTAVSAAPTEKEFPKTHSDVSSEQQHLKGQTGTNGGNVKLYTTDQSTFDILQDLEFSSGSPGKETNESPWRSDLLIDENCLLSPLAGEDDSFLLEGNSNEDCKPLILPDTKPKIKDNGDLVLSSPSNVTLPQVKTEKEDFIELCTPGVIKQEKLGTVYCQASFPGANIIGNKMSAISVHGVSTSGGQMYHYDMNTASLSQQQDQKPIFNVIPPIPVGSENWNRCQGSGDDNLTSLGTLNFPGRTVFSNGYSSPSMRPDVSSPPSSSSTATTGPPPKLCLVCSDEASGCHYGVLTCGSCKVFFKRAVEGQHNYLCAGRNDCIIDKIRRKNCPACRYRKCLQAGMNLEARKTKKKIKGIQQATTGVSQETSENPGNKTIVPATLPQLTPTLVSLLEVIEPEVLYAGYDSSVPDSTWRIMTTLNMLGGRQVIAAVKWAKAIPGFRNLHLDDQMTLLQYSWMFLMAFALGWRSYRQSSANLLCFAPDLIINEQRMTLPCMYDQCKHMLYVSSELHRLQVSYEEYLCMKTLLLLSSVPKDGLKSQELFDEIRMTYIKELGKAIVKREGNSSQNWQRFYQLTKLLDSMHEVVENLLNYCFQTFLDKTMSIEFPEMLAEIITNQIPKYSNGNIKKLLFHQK
Sequence of 5-hydroxytryptamine receptor 4 (Homo sapiens) (Q13639 whole entry): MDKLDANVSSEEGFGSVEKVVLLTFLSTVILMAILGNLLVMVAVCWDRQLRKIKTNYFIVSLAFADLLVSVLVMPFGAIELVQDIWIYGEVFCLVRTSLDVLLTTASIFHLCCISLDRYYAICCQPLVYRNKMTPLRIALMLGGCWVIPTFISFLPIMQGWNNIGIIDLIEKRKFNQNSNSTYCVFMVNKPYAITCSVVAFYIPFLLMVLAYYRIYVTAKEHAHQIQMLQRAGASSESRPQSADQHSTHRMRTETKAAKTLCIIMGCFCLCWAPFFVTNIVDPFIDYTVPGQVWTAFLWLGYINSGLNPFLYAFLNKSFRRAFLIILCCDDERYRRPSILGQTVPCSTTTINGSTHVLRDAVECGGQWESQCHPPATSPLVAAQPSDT

As usually defined, the pKi is the negative decadic logarithm of the Ki, by convention in mol/L. On to `CN(C)C(=O)Cn1cc(-c2nc(C3(c4ccc(-c5cnc(N)nc5)cc4)CC3)no2)cn1` [BI 0153], for which the pKi in [1] (read-out: Ki) was 6.07. Also, the Ki in assay [1] (read-out: pKi (converted)) is 794 nM. In addition, the residual activity was 70% in assay [2] and 100% in [3].
Consider `CN(C)C(=O)Cn1cc(-c2nc([C@@](C)(c3ccc(-c4cnc(N)nc4)cc3)C3CC3)no2)cn1` [BI 665915], for which the residual activity is 90% in [4]; 111% in assay [5]; 105% in assay [6]; 100% in [7]; 117% in assay [8]; 118% in assay [9]. The residual activity in [10] was 96%; in [11], 108%; in assay [12], 93%; in assay [13], 101%; in [14], 108%; in [15], 98%. Besides, the residual activity in [16] is 90%; in assay [17] it was 104%; in assay [18] it was 99.5%; in assay [19] it was 98.5%; in [20] it was 95.5%; in assay [21], 89%. Moreover, the residual activity in the assay listed under Homo sapiens is 98%; in [22], 95.5%; in assay [23] it was 96%; in assay [24], 94.5%; in [25] it was 104%; in [26], 100%. In addition, the residual activity was 97.5% in [27], 93% in assay [28], 99% in [29] and 97.5% in assay [30].
